Data as given in patent US9096605B2, “Pyrazolopyrimidine derivatives as PI3 kinase inhibitors” (GlaxoSmithKline LLC, priority 2011, dated 2015).

Experiments:
[1] = test system: pAKT(Ser473) in MDA-MB-468 cells; assay: pAKT(Ser473) assay in MDA-MB-468 cells; type: cell-based; settings: Homo sapiens, 0.5 h, compound treatment 30 minutes, MSD ELISA phospho AKT(Ser473), given as ranges, read-out: Cell Activity—pAKT IC50 in MDA-MB-468
Experimental: pAKT(Ser473) Assay in MDA-MB-468 Cells
MDA-MB-468 cells were plated in 384-well flat clear bottom tissue culture plates (Corning #3701) at a density of 5000 cells per 0.057 cm2 in 48 ul of RPMI 1640 media supplemented with 10% fetal bovine serum (FBS). Cells were seeded with a Wellmate liquid handler (Matrix). Columns 1 through 23 were plated with cells and column 24 contained media alone. Cells were incubated at 37° C. with 5% CO2 for approximately 16-20 hours. Duplicate compound plates were prepared in 384-well polypropylene V-Bottom plates (Greiner #781280).
Compound titrations were made across the columns (A1-A20). 20 ul of compound was added to the first column and diluted into a 20 point curve with dimethylsulfoxide (DMSO, Thermo #TS2064) using a 2-fold dilution factor with a liquid handling robot (Hamilton). Columns 22 through 24 contained DMSO alone. Titrations were diluted 682-fold for compound treatment with 4 ul of compound added to 105 ul of RPMI media. Two ul of the diluted compound was added to the cell plates containing 48 ul of media using a multimek robot (Beckman Coulter). Final DMSO concentrations were 0.15%. Cells were treated with compound for 30 minutes at 37° C. with 5% CO2.
Following incubation, media was aspirated from dosed cell plates using an ELx405 plate washer (Bio-Tek) and 25 ul of 4° C. Meso Scale Discovery (MSD) lysis buffer with the addition of protease and phosphatase inhibitors (supplied in MSD kit #N31CB-1) was added to each well using a multidrop combi (Thermo). Precoated 4-spot per well MSD ELISA plates coated with total and phospho AKT(Ser473) antibody and BSA (supplied in kit) were blocked for 1 hour at room temperature with 35 ul per well of 1× MSD wash buffer+3% BSA (supplied in kit).
Blocked plates were washed 4 times with 100 ul per well of 1× Tris wash buffer (supplied in MSD kit) using an Elx405 plate washer (Bio-Tek). To each well, 20 ul of cell lysate was added using a multimek robot (Beckman Coulter) and the plate incubated at 4° C. overnight (˜12-24 hours). Following incubation, the ELISA plates were washed 4 times (100 ul/well) with 1× Tris wash buffer. Twenty microliters per well of 1× detection antibody (supplied in MSD kit) was added using a multidrop combi (Thermo), followed by a 2 hour incubation at room temperature. Detection antibody was aspirated and the plates washed 4 times (100 ul/well) with 1× Tris wash buffer. Read Buffer (supplied in MSD kit) was added at 1× (35 ul/well) at room temperature using a multidrop (Thermo). Relative luminescence units (RLU) were determined using a SECTOR™ Imager 6000 with MSD Workbench Software.
Concentration Response Curves for pAKT(Ser473):
For analysis of the pAKT(Ser473) concentration response curves, the data was normalized using Phospho AKT values divided by the sum of corresponding Total AKT and Phospho AKT values. The normalized values are plotted as the percent of the DMSO-treated control values on the corresponding plate. To determine IC50 values, the data is fit to a 4 parameter nonlinear sigmoidal dose response (variable slope) using GraphPad Prism version 4 for Windows, (GraphPad Software, San Diego Calif. USA). Criteria for curve fitting and IC50 determination include that the IC50 values from duplicate runs must be within 2 to 3-fold of each other, the Y min must be less than or equal to 30% of the DMSO-treated control and the Y max must range between 80-120%. Any data point equal to or greater than 40% of the curve was not utilized.

PI3K-beta = target: T1, PI3K-beta (Homo sapiens, UniProt P42338); assay: HTRF in vitro profiling assay for PI3K inhibition (beta isoform); type: biochemical; settings: PI3K-beta enzyme pIC50 range, 200 pM enzyme, 100 uM ATP, 10 uM PIP2, 150 mM NaCl, corrected pIC50, read-out: PI3K-b Enz Activity
T1 construct: made in house
T1 sequence (P42338 whole entry, canonical isoform): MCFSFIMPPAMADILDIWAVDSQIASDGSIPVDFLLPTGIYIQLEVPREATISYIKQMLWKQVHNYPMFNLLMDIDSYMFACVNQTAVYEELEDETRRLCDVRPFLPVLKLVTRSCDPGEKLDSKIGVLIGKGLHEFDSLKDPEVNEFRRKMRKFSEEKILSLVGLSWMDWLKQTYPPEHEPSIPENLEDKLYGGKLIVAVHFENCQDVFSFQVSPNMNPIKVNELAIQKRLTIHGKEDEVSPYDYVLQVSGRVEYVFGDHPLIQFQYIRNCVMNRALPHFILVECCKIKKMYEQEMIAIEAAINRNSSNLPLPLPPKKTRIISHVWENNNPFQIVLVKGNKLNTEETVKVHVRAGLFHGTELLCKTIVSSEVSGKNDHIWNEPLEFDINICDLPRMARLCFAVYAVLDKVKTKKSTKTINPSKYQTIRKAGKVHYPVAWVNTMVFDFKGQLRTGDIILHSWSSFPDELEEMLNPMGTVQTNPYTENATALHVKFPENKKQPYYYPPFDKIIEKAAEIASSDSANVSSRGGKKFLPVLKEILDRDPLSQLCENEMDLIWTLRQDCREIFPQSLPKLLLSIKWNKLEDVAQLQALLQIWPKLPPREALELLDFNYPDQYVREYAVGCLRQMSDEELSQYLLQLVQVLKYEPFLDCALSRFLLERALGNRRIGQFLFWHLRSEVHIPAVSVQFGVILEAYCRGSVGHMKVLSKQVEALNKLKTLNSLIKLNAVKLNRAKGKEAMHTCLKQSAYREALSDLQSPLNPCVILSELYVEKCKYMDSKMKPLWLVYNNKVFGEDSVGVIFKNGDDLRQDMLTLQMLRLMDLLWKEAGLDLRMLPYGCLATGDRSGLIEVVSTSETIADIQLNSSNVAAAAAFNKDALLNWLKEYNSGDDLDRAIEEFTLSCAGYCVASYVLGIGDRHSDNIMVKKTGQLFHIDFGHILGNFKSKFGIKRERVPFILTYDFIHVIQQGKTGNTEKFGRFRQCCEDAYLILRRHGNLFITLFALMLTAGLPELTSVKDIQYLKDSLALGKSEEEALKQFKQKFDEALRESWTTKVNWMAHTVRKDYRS
T1 sequence (P27986 whole entry partner, canonical isoform): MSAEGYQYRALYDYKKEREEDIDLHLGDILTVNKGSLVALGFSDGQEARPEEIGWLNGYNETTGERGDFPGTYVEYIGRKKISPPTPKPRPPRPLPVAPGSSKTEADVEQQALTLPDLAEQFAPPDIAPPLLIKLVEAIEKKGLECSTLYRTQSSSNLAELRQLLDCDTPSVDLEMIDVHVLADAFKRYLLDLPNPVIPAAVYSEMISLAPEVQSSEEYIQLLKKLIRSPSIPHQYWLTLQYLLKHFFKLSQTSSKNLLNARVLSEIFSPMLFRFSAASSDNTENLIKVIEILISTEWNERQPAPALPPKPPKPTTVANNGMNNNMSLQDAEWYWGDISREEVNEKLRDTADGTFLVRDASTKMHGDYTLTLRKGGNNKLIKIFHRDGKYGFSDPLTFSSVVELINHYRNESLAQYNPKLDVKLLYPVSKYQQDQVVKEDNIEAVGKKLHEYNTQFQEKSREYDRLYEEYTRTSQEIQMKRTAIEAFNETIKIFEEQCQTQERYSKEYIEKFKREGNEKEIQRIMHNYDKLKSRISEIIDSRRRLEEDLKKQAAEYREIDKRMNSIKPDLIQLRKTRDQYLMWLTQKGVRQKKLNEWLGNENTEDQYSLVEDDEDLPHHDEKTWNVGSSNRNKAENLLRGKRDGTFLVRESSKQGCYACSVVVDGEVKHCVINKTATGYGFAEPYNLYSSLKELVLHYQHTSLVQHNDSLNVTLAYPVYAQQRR
Text: HTRF In Vitro Profiling Assays for PI3K Inhibition
The PI3-Kinase profiling assays were developed to measure the compound-dependent inhibition of the alpha, beta, delta, and gamma isoforms of PI3K in an in vitro catalytic assay. This assay was developed and optimized from a kit produced by Upstate (Millipore catalog #33-017). Briefly, this procedure utilizes a pre-formed HTRF (Homogeneous Time-Resolved Fluorescence energy transfer) complex between four binding partners: 1) biotinylated PIP3, 2) GST tagged pleckstrin homology (PH) domain, 3) Europium labeled anti-GST monoclonal antibody, and 4) Streptavidin-Allophycocyanin (APC). The native PIP3 produced by PI 3-Kinase activity displaces biotin-PIP3 from the PH domain, resulting in the dissociation of the HTRF complex and a decrease in the fluorescence signal. The format of this assay is the same for all 4 isoforms of PI3K; the differences lie in the concentration of enzyme used to achieve the most robust signal. The alpha and delta assays are run at 400 pM enzyme; the beta assay is at 200 pM enzyme and the gamma assay is run at 1 nM enzyme. In addition, the alpha, beta and delta assays are run with 150 mM NaCl while the gamma assay is run in the absence of NaCl. The ATP concentration is 100 uM in the alpha, beta, and delta assays and 15 uM ATP in the gamma assay. All reactions are run at 10 uM PIP2
Compounds are serially diluted (3-fold in 100% DMSO) across a 384-well polypropylene mother plate from column 1 to column 12 and column 13 to column 24, to yield 11 concentrations for each test compound. Columns 6 and 18 contain only DMSO. Once titrations are made, […] is transferred to a 384-well low-volume assay plate (Greiner 784076). This assay plate contains three pharmacological controls (known PI3K inhibitors) and 3 assay controls: (1) Enzyme without inhibitor; (2) Buffer minus enzyme, and (3) Buffer minus enzyme plus native PIP3. DMSO is stamped into all wells of columns 6 and 18. PIP3 is added at 40 μM in 1× Reaction buffer (1 μL of 200 μM PIP3) to alternating rows of column 18 (wells 18 B, D, F, H, J, L, N, P). The no-enzyme control reactions are run in wells 18 A, C, E, G, I, K, M, O (0.1 μL of 100% DMSO).
The PI3-Kinase profiling assay was optimized using the HTRF kit provided by Upstate (Millipore). The assay kit contains seven reagents: 1) 4× Reaction Buffer; 2) native PIP2 (substrate); 3) Stop A (EDTA); 4) Stop B (Biotin-PIP3); 5) Detection Mix A (Streptavidin-APC); 6) Detection Mix B (Eu-labeled Anti-GST plus GST-tagged PH-domain); 7) Detection Mix C (KF). In addition, the following items were obtained or purchased: PI3Kinase (prepared by GSK BR&AD), dithiothreitol (Sigma, D-5545), Adenosine-5′-triphosphate (ATP, Teknova cat. # A0220), native PIP3 (1,2-dioctanoyl-sn-glycero-3-[phosphoinositil-3,4,5-triphosphate]tetraammonium salt (Avanti polar lipids, 850186P), DMSO (Sigma, 472301).
PI3Kinase Reaction Buffer is prepared by diluting the stock 1:4 with de-ionized water. Freshly prepared DTT is added at a final concentration of 5 mM on the day of use. Enzyme addition and compound pre-incubation are initiated by the addition of 2.5 μL of PI3K (at twice its final concentration) in 1× reaction buffer to all wells using a Multidrop Combi. Plates are incubated at room temperature for 15 minutes. Reactions are initiated by addition of 2.5 μL of 2× substrate solution (PIP2 and ATP in 1× reaction buffer) using a Multidrop Combi. Plates are incubated at room temperature for one hour. Reactions are quenched by the addition of 2.5 μL of stop solution (Stop A and Stop B pre-mixed at a ratio of 5:1, respectively) to all wells using the Multidrop Combi. […]

Which IC50 [1] does the source give for `CCc1nn2c(O)cc(-c3ccncc3)nc2c1Cc1cccc(Cl)c1Cl` [Example 31, 3-(2,3-dichlorobenzyl)-2-ethyl-5-(pyridin-4-yl)pyrazolo[1,5-a]pyrimidin-7-ol] here?
The IC50 was over 20000 nM.

What about the IC50 (PI3K-beta) of the same compound?
Its IC50 is 0.126 to 1 nM.

`COc1cc(N2CCOCC2)nc2c(Cc3cccc(C(F)(F)F)c3C)cnn12` [Example 12, 4-(7-methoxy-3-(2-methyl-3-(trifluoromethyl)benzyl)pyrazolo[1,5-a]pyrimidin-5-yl)morpholine] was tested. Which IC50 (PI3K-beta) did it give?
The IC50 was 126 to 1260 nM.

Which results are given for `Cc1nn2c(C(N)=O)cc(N3CCOCC3)nc2c1Cc1cccc(C(F)(F)F)c1C` [Example 39, 2-methyl-3-(2-methyl-3-(trifluoromethyl)benzyl)-5-morpholinopyrazolo[1,5-a]pyrimidine-7-carboxamide]?
IC50 [1]: > 20000 nM; IC50 (PI3K-beta): 12.6 to 100 nM

`Cc1nn2c(C(=O)O)cc(N3CCOCC3)nc2c1Cc1cccc2ccccc12` [Example 37, 2-methyl-5-morpholino-3-(naphthalen-1-ylmethyl)pyrazolo[1,5-a]pyrimidine-7-carboxylic acid] was tested. Which IC50 [1] did it give?
Its IC50 is 1000 to 5000 nM.

And the IC50 (PI3K-beta)?
The IC50 was 12.6 to 100 nM.

What does the source list for `Oc1cc(C2CCOCC2)nc2c(Cc3cccc(Cl)c3Cl)c(C(F)(F)F)nn12` [Example 9, 3-(2,3-dichlorobenzyl)-5-(tetrahydro-2H-pyran-4-yl)-2-(trifluoromethyl)pyrazolo[1,5-a]pyrimidin-7-ol]?
IC50 [1]: > 20000 nM; IC50 (PI3K-beta): 1.26 to 10 nM

What does the source list for `Cc1nn2c(-c3nn[nH]n3)cc(N3CCOCC3)nc2c1Cc1cccc(C(F)(F)F)c1C` [Example 46, 4-(2-methyl-3-(2-methyl-3-(trifluoromethyl)benzyl)-7-(2H-tetrazol-5-yl)pyrazolo[1,5-a]pyrimidin-5-yl)morpholine]?
IC50 [1]: 1000 to 5000 nM; IC50 (PI3K-beta): 12.6 to 100 nM

For `Cc1nn2c(O)cc(N3CCOCC3)nc2c1Cc1cccc(C(F)(F)F)c1C` [Example 1, 2-methyl-3-(2-methyl-3-(trifluoromethyl)benzyl)-5-morpholinopyrazolo[1,5-a]pyrimidin-7-ol], which IC50 [1] is on record?
Its IC50 is 1000 to 5000 nM.

And the IC50 (PI3K-beta)?
The IC50 was 0.126 to 1 nM.

What does the source list for `Cc1nn2c(-c3nc[nH]n3)cc(N3CCOCC3)nc2c1Cc1cccc2ccccc12` [Example 40, 4-(2-methyl-3-(naphthalen-1-ylmethyl)-7-(1H-1,2,4-triazol-3-yl)pyrazolo[1,5-a]pyrimidin-5-yl)morpholine]?
IC50 [1]: < 1000 nM; IC50 (PI3K-beta): 1.26 to 10 nM

`Cc1c(Cc2cnn3c(Cl)cc(N4CCOCC4)nc23)cccc1C(F)(F)F` [Example 10, 4-(7-chloro-3-(2-methyl-3-(trifluoromethyl)benzyl)pyrazolo[1,5-a]pyrimidin-5-yl)morpholine] was tested. Which IC50 (PI3K-beta) did it give?
Its IC50 is 126 to 1260 nM.

Which results are given for `Oc1cc(N2CCOCC2)nc2c(Cc3cccc(Cl)c3Cl)c(C(F)(F)F)nn12` [Example 7, 3-(2,3-dichlorobenzyl)-5-morpholino-2-(trifluoromethyl)pyrazolo[1,5-a]pyrimidin-7-ol]?
IC50 [1]: 1000 to 5000 nM; IC50 (PI3K-beta): 0.126 to 1 nM

How did the IC50 [1] turn out when `Nc1cc(N2CCOCC2)nc2c(Cc3cccc(Cl)c3Cl)cnn12` [Example 20, 3-(2,3-dichlorobenzyl)-5-morpholinopyrazolo[1,5-a]pyrimidin-7-amine] was run?
Its IC50 is under 1000 nM.

And the IC50 (PI3K-beta)?
Its IC50 is 12.6 to 100 nM.

With `Cc1ccccc1Cc1c(C)n(C)n2c(=O)cc(-c3ccncc3)nc12` [Example 51, 1,2-dimethyl-3-(2-methylbenzyl)-5-(pyridin-4-yl)pyrazolo[1,5-a]pyrimidin-7(1H)-one] as the compound, how does the IC50 (PI3K-beta) read?
The IC50 was 126 to 1260 nM.

With `CC(=O)Nc1cc(N2CCOCC2)nc2c(Cc3cccc(C(F)(F)F)c3C)c(C)nn12` [Example 18, N-[2-methyl-3-{[2-methyl-3-(trifluoromethyl)phenyl]methyl}-5-(4-morpholinyl)pyrazolo[1,5-a]pyrimidin-7-yl]acetamide] as the compound, how does the IC50 (PI3K-beta) read?
Its IC50 is 126 to 1260 nM.

For `Cc1nn2c(-n3ccnc3)cc(N3CCOCC3)nc2c1Cc1cccc2ccccc12` [Example 44, 4-(7-(1H-imidazol-1-yl)-2-methyl-3-(naphthalen-1-ylmethyl)pyrazolo[1,5-a]pyrimidin-5-yl)morpholine], which IC50 (PI3K-beta) is on record?
The IC50 was 126 to 1260 nM.

With `Cc1nn2c(N3CCOCC3)cc(N3CCOCC3)nc2c1Cc1cccc2ccccc12` [Example 28, 4,4′-(2-methyl-3-(naphthalen-1-ylmethyl)pyrazolo[1,5-a]pyrimidine-5,7-diyl)dimorpholine] as the compound, how does the IC50 (PI3K-beta) read?
The IC50 was 126 to 1260 nM.

For `COc1cc(-c2ccncc2)nc2c(Cc3cccc(Cl)c3Cl)c(C)nn12` [Example 34, 3-(2,3-dichlorobenzyl)-7-methoxy-2-methyl-5-(pyridin-4-yl)pyrazolo[1,5-a]pyrimidine], which IC50 (PI3K-beta) is on record?
Its IC50 is 126 to 1260 nM.

Which IC50 (PI3K-beta) does the source give for `Cc1ccccc1Cc1c(C)nn2c(-c3cn[nH]c3)cc(-c3ccncc3)nc12` [Example 49, 2-methyl-3-(2-methylbenzyl)-7-(1H-pyrazol-4-yl)-5-(pyridin-4-yl)pyrazolo[1,5-a]pyrimidine] here?
Its IC50 is 126 to 1260 nM.

`Cc1nn2c(N)cc(-c3ccncc3)nc2c1Cc1cccc(C(F)(F)F)c1C` [Example 6, 2-methyl-3-(2-methyl-3-(trifluoromethyl)benzyl)-5-(pyridin-4-yl)pyrazolo[1,5-a]pyrimidin-7-amine] was tested. Which IC50 (PI3K-beta) did it give?
Its IC50 is 12.6 to 100 nM.
